In patent US5770623A, “Argine antagonists for inhibition of systemic hypotension associated with nitric oxide production or endothelial derived relaxing factor” (Board of Regents, The University of Texas System, priority 1995, dated 1998):
Entries after “also recorded” stand apart in the source; their conditions may differ.

Tests used:
untreated dogs [1] = assay type: in vivo, dog
Experimental: Recombinant human TNF specific activity 2×10^7 units/mg, was from the Niposn Chemical Corporation, Tokyo, Japan. TNF was administered at a dose of 10 mcg/kg in a volume of 10 ml of phosphate buffered saline containing 2 mgs/ml of dog albumin. […] Arginine was obtained from Sigma Chemical Company, St. Louis, Mo.
Four conditioned mongrel dogs, 2 males and 2 females, weighing 28 to 30 kgs, were studied. Care of the animals were in accordance with the recommendation of the American Association for Accreditation of Laboratory Animals [DHEW(DHHS) publication no. (NIH) 78-23, revised, 1978]. On the day of the experiment, the dogs were fasted overnight. They were anesthetized with phenobarbital (10 mg/kg). They were then intubated orally with a #10 fr. endotracheal tube and ventilated with a Harvard pump ventilator at a rate of 12 breaths per minute and a tidal volume of 15 ml/kg. An arterial line was percutaneously placed in the femoral artery on the day of the experiment.
Mean (electronic) and phasic systemic arterial pressures (SAP) were continuously recorded on a Hewlett-Packard recording system (model 7758B) using strain gauge manometers (Hewlett-Packard model 1290A) which were connected to the arterial line. Heart rate (HR) was determined from an EKG tracing and continuously recorded on the Hewlett-Packard recording system. Oxyhemoglobin saturation (SaO2) was obtained using a pulse oximeter (BIOX 111, Boulder, Colo.). continuous time-series records of SAP, HR, and SaO2 were obtained using a Lab Master analog-to-digital convertor (16 channel, 12 bit, 30 kHz; Scientific Solutions, Inc.) sampling at 55 Hz and storing the 6 sec averages on a magnetic disk.
This was followed by a compensatory decrease in the HR with a return of the BP to baseline. The NMMA-induced bradycardia lasted 31 minutes. This response was not observed in animals which had been previously treated with TNF. In a subsequent experiment (FIG. 7a) the hypotensive response to TNF was especially severe, with a decrease in BP from 125 mm to 36 mmHg. […] This was associated with a decrease in the HR from 101 to 92 beats/minute. […] In a second control study nitroglycerin was infused at a rate of 28 μg/kg/minute, IV, to lower the blood pressure to the same level as that observed with tumor necrosis factor (FIG. 7c).

[2] = test system: mongrel dogs with TNF-induced hypotension; conditions: Kilbourn et al. 1990; listed as L-NMA; cited from earlier work
anesthetized guinea pig = assay: Pressor effect in the anesthetized guinea pig; assay type: in vivo; conditions: 1-10 mg/kg i.v. (L-NMA)
Source text: Points are mean changes in diastolic arterial pressure (±SEM; n=4-5). Control systolic and diastolic BP was 75±3 and 51±3 mm Hg, respectively.

[3] = test system: human LAK cells against Raji target cells; assay: IL-2 mediated lymphokine activated killer cell activity in vitro; assay type: cell-based
Experimental: *% Lysis calculated from the % of release of radioactivity from ^51
Crlabeled Raji Target cells minus spontaneous release.

untreated dogs [4] = assay: NMMA in untreated dogs (Example 5); assay type: in vivo, dog
Experimental: Administration of ET to dogs was clearly more toxic and less predictable than TNF administration. […] Within 1.5 minutes the blood pressure increased by 33±2.5 mmHg.

[5] = target: EMT6 enzyme system (NO formation from L-arginine) (Mus musculus, UniProt P29477); assay: Arginine-dependent nitrite synthesis by cytosol of stimulated EMT6 cells; assay type: biochemical, murine; conditions: Lineweaver-Burke
Chain of EMT6 enzyme system (NO formation from L-arginine) (P29477 whole entry): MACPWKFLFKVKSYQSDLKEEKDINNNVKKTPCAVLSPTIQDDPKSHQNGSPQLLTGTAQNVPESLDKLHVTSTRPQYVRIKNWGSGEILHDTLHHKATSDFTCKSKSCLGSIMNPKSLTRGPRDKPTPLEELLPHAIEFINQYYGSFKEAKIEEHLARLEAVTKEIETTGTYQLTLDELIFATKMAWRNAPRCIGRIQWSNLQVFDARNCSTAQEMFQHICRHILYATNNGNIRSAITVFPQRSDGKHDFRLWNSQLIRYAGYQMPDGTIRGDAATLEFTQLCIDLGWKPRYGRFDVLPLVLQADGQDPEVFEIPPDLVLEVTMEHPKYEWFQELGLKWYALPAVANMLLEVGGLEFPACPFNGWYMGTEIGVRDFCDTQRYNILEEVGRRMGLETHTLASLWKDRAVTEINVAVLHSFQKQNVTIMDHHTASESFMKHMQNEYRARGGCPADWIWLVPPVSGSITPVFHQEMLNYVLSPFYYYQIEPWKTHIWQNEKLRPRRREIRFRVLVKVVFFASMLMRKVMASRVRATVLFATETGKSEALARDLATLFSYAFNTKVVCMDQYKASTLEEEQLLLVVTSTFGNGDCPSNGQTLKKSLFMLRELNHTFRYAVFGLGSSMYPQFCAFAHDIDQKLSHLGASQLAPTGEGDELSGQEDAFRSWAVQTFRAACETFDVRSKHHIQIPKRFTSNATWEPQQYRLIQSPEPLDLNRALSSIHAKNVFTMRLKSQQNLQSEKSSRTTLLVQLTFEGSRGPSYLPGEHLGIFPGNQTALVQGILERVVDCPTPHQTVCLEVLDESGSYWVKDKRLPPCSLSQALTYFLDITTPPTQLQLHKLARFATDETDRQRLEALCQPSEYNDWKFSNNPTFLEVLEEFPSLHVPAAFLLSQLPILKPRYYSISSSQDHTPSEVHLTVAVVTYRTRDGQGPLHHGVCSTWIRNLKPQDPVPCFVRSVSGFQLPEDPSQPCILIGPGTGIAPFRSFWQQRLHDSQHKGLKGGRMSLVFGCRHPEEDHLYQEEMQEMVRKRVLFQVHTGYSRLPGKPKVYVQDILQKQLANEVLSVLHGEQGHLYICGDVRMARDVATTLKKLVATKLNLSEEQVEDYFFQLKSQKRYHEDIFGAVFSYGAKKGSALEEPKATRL
Experimental: Thus EMT6 cytosolic preparations (i.e., cell-free solutions) were prepared and an enzyme activity was characterized which forms NO and citrulline from arginine. This reaction requires NADPH (FIG. 18 and 19) and other cofactors.
Incubation mixtures were 100 μl total volume containing: 40 μl cytosol (100,000×g supernatant), 2 mM L-arginine, 2 mM NADPH, 20 mM TRIS (pH 8.0) and a "cocktail" of protease inhibitors.
From kinetic studies an apparent Michaelis-Menton constant for L-arginine utilization by the enzyme was deduced. FIG. 20 is a Lineweaver-Burke plot for synthesis of nitrite from L-arginine by cytosol from stimulated EMT6 cells. The rate of nitrite formation was evaluated over a range of L-arginine (ARG) concentrations (from 0.03-2.0 mM) under conditions similar to that described for FIG. 18, except that incubates contained 50 μl cytosol in a total volume of 80 μl. Open and filled circles represent results obtained with each of two cytosol preparations. […] N^G -substituted arginine analogs were screened for precise quantitation of their ability to inhibit arginine-dependent NO formation by the EMT6 enzyme system.

CNC(=N)NCCC[C@H](N)C(=O)O [NMMA, N^G -methyl-L-arginine]
duration of NMMA-induced bradycardia (untreated dogs [1]; dog, in vivo): 31 min | time to initial blood pressure increase (untreated dogs [1]; untreated dogs (n=3), NMMA alone): ≤ 1.7 min | time within which blood pressure increased (untreated dogs [1]; untreated dogs, FIG. 7b): ≤ 2 min | blood pressure increase by NMMA (untreated dogs [1]; untreated dogs, FIG. 7b, within 2 minutes): 12 mmHg | HR after NMMA (untreated dogs [1]; untreated dogs, FIG. 7b, decrease from 101): 92 beats/minute | reversal of TNF-induced hypotension [2]: completely reversed; also recorded: substantially reversed | effect on diastolic BP / pressor effect (words) (anesthetized guinea pig): increase the resting blood pressure | effect on diastolic BP / pressor effect (words) (anesthetized guinea pig; listed as L-NMA): sustained rise in diastolic BP | % Target Cell Lysis ([3]; [NMMA] 2.0 mM, E:T = 80:1, 40 U/ml IL2): 75.1 ± 4.1% | effect on proliferation phase or lytic phase of LAK cells ([3]; exposed to IL-2, in vitro): did not alter | anti-tumor activity of IL-2 in vitro ([3]; in vitro): does not inhibit the anti-tumor activity | increase in blood pressure by NMMA (untreated dogs [4]; normal untreated dog, compared with 20 mg/kg NMMA in lethal shock): 35 mm | increase in blood pressure by NMMA (untreated dogs [4]; untreated animals): 12 mm Hg | mode of inhibition [5]: competitive inhibitor
